Test results reported in article PMC9781803, “Phenotypic and Target-Directed Screening Yields New Acaricidal Alternatives for the Control of Ticks” (Molecules, 2022).
Like-named read-outs stand apart in the source and are kept apart here. Marks after values point to notes of the source that are not given here.

Columns and labels:
[1] = tested on: fully engorged females of the Mozo susceptible strain of R. microplus; assay: Adult Immersion Test (AIT); format: in vivo; settings: for % of Mortality AIT: compounds 1.5 mM, 15 min immersion, 14 days
Description: This essay was performed based on Drummond et al., 1973, as each group of 5 fully engorged females of the Mozo susceptible strain of R. microplus was immersed in 50 mL tubes containing 10 mL of compounds at different concentrations (0.5, 1, 1.5, 2, 3.5 mM) for 15 min in four replicates. Four negative control groups were used (DMSO 10%). After immersion, the fully engorged females were lightly dried with absorbent paper. They were then placed in 100 mm disposable Petri dishes with their respective identification, and immediately incubated at 27 °C in an atmosphere with relative humidity (RH) of 85-90% for 14 days. […] The tubes carrying the eggs were closed with hydrophilic cotton, and were returned to the incubator chamber under the same conditions until the eggs hatched. The reproductive efficacy, as well as % control of each compound on R. microplus, was calculated according to published reports. The results were verified in two independent experiments.

[2] = tested on: R. microplus (Mozo strain) larvae; assay: Larval Immersion Test (LIT); format: in vivo
Description: (§1) This assay was performed based on the method of Castro-Janer et al., 2011. Fully engorged females of R. microplus (Mozo strain) were incubated in Petri dishes at 27 °C and 85–90% relative humidity for 14 days. […] The tubes were incubated in the same conditions as described above. The larvae were ready for testing after 14 to 21 days from egg-hatching. For the test, the compounds were diluted in DMSO, and were later resuspended in distilled water, always using 15% DMSO of the final solution volume. The concentrations for the different compounds for the final immersion solution are 1 mg/mL for the extracts, and 1 mM for the compounds. […] For the immersion procedure, tubes containing the larvae were placed vertically, without the cotton plug, and the larvae were taken with a brush from the top of the tube, ensuring they were viable. A cluster with a diameter of 2 mm of larvae was collected with a brush, and was later immersed in each solution, as well as in both control solutions, for 10 min. After this time, the solutions were drained, and the larvae were placed in 8.5 cm × 7.5 cm Whatman No. 1 filter papers. The filters were folded in the middle of the 8.5 cm side, and closed with 3 bulldog clips, forming packets. These packets were incubated for 24 h, under the same conditions as described previously, and then the percent of mortality was determined, considering it as the % of the control.

[3] = tested on: J774.1 murine macrophages; assay: Cytotoxicity assay on murine macrophages (MTT); format: cell-based; settings: for EC50: read-out: EC50 (µM) for Mammalian Cells; for IC50: J774.1, 48 h, read-out: IC50 (µM) Mammalian Cells
Description: J774.1 murine macrophages (ATCC, Rockville, MD, USA) were grown in a DMEM culture medium containing 4 mM L-glutamine, and supplemented with 10% FCS. The cells were seeded into a 96-well plate (5 × 10^4 cells in 200 µL culture medium) and incubated at 37 °C in a 5% CO2 atmosphere for 48 h, to allow cell adhesion before drug testing. Afterward, the cells were exposed for 48 h to the compounds (25–400 μM) or the vehicle (0.4% DMSO), and additional controls (cells in medium) were used in each test. Cell viability was then assessed by measuring the mitochondria-dependent reduction of MTT to formazan: for this, MTT in sterile PBS (0.2% glucose), pH 7.4, was added to the macrophages, to a final concentration of 0.1 mg/mL, and the cells were then incubated at 37 °C for 3 h. After removing the medium, the formazan crystals were dissolved in 180 μL of DMSO and 20 μL of MTT buffer (0.1 M glycine, 0.1 M NaCl, 0.5 mM EDTA, pH 10.5), and the absorbance was measured at 560 nm. The IC50 was defined as the drug concentration at which 50% of the cells were viable, relative to the control (no drug added), and was determined by analysis using OriginLab 8.5 Corporation, Northampton, MA, USA, sigmoidal regression (% of viable cells compared to the logarithm of the compound concentration). The tests were performed in triplicate in two independent experiments.

[4] = target: R. microplus triosephosphate isomerase (RmTIM) (Rhipicephalus microplus, UniProt A8B3A8); assay: biochemical; settings: for IC50: RmTIM, read-out: IC50
Description: (§2) R. microplus triosephosphate isomerase (RmTIM) and Homo sapiens triosephosphate isomerase (HsTIM) were expressed in Escherichia coli, and purified as previously described in the literature. Protein concentration was determined by absorbance measurements at 280 nm for RmTIM (ε = 33440 M^−1cm^−1) and HsTIM (ε = 33460 M^−1cm^−1). Enzymatic activity was determined following the reaction of the conversion of glyceraldehyde-3-phosphate to dihydroxyacetone phosphate in a coupled enzyme assay using α-glycerol-phosphate dehydrogenase. The decrease in absorbance at 340 nm was recorded in a multiplate reader Varioskan™ Flash Multimode Reader (Thermo Scientific^TM, Waltham, MA, USA) at 25 °C. The reaction mixture ([…], pH 7.4) contained 100 mM triethanolamine, 10 mM EDTA, 0.2 mM NADH, 1 mM glyceraldehyde-3-phosphate, and 0.9 units of α-glycerol-phosphate dehydrogenase. The reaction was initiated by the addition of 5 ng/mL of the TIM of interest. For the inhibition studies (incubation mixture), TIM was incubated at a concentration of 5 mg/mL in a buffer of pH 7.4 containing 100 mM triethanolamine, 10 mM EDTA, and 10% DMSO at 25 °C for 1 h. The mixture also contained the compounds, dissolved in DMSO, at final concentrations of 10 and 100 μM. After 1 h, 10 μL of the incubation mixture was added to the reaction mixture, to a final volume of 100 μL in a 96-well plate. None of the molecules tested here affected the activity of α-glycerol-phosphate dehydrogenase (checked in situ on the reaction mixture inhibited, with the addition of fresh α-glycerol-phosphate dehydrogenase and running the measurement again). The IC50 value was taken as the concentration of drug needed to reduce the enzymatic activity by 50%, and was analyzed using OriginLab 8.5 Corporation, Northampton, MA, USA, sigmoidal regression (% of enzymatic activity vs. the logarithm of the compound concentration). The tests were performed in triplicate in two independent experiments.

[5] = target: T1, Homo sapiens triosephosphate isomerase (HsTIM) (Homo sapiens, UniProt P60174); assay: Enzymatic activity of TIM, coupled enzyme assay; format: biochemical
T1 construct: made in house; host or cells: Escherichia coli
Description: as §2

R. microplus = assay: Acaricidal activity on R. microplus (LIT and AIT, overall statement); format: in vivo; settings: LIT 1 mM and AIT 1.5 mM
Description: as §1, with “After immersion, the fully engorged females were lightly dried with absorbent paper. […] The tubes carrying the eggs were closed with hydrophilic cotton, and were returned to the incubator chamber under the same conditions until the eggs hatched. The reproductive efficacy, as well as % control of each compound on R. microplus, was calculated according to published reports. The results were verified in two independent experiments. This” for “This”, “2011.” for “2011. Fully engorged females of R. microplus (Mozo strain) were incubated in Petri dishes at 27 °C and 85–90% relative humidity for 14 days.”, “volume.” for “volume. The concentrations for the different compounds for the final immersion solution are 1 mg/mL for the extracts, and 1 mM for the compounds.”

[6] = tested on: embryonic cell line BME26; assay: Phenotypic screening on BME26 cell cultures (MTT viability); format: cell-based, R. microplus; settings: for inhibition at 100 µM: synthetic compounds at 100 μM, BME26, 24 h, read-out: % of Growth Inhibition; for IC50: BME26 cells, 24 h, MTT, read-out: IC50
Description: The embryonic cell line BME26 from R. microplus (Centro de Biotecnologia, Universidade Federal do Rio Grande do Sul, Porto Alegre, RS, Brazil) was grown as adherent monolayers in a complete medium, as described previously, which consisted of L-15B300 medium supplemented with 5% heat-inactivated Fetal Bovine Serum (FBS) (Gibco Co., Grand Island, NY), 10% Tryptose Phosphate Broth (TPB) (BD), penicillin (100 U/mL), streptomycin ([…], Gibco Co., Grand Island, NY, USA), and 0.1% bovine lipoprotein concentrate (ICN), (pH 7.2). The suspension of embryonic BME26 cells from R. microplus was seeded into 24-well plates (5 × 10^5 cells/well) to a final volume of 500 μL in a complete medium, and allowed to attach. After 24 h incubation at 34 °C, the extracts (100 µg/mL final concentration) and the compounds were added to the final concentrations indicated (1–100 µM), and 0.05% dimethylsulfoxide (DMSO) was used in the negative control wells. After 24 h of treatment, 50 μL of 3-(4,5-dimethylthiazol-2-yl)-2,5-diphenyltetrazolium bromide (MTT) prepared in serum-free medium (5 mg/mL) was added to each well. The media were discarded after 2 additional hours of incubation, and 1 mL of acid-isopropyl alcohol (0.15% HCl in isopropyl alcohol) was added to dissolve the formazan crystals. The mixture was transferred to 1.5 mL tubes, centrifuged at 6000× g for 15 min, and the clear supernatant was collected in new tubes for absorbance measurement at 570 nm using quartz cuvettes in a UVmini-1240 UV–vis spectrophotometer (Shimadzu, Japan). Absorbance values of the control treatment were used for normalization (100% viability). The activity was determined by analysis using OriginLab8.5® sigmoidal regression (% of viable cells compared to the logarithm of the compound concentration). The half-maximal inhibitory concentration (IC50), defined as the drug concentration at which 50% of the cells were viable relative to the control (no drug added), was used as a measurement of activity. These experiments were performed in triplicate for each compound.

[7] = tested on: ticks of the population of multiresistant field; assay: Adult immersion test on multiresistant field population (Table S3); format: in vivo, R. microplus; settings: preliminary study
[8] = compounds 1.0 mM, 10 min immersion, 24 h
[9] = Mus musculus, J774.1, cytotoxicity
[10] = 1 h incubation, read-out: % Inhibition of Enzymatic Activity of RmTIM

Sequence of R. microplus triosephosphate isomerase (RmTIM) (A8B3A8 entry or part of it): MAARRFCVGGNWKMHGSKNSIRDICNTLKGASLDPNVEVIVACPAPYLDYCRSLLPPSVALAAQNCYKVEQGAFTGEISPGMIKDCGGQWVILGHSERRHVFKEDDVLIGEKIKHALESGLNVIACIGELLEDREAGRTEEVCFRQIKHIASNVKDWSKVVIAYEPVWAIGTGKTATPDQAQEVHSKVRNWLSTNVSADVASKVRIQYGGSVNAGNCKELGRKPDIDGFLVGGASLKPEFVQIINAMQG
T1 sequence (P60174 whole entry): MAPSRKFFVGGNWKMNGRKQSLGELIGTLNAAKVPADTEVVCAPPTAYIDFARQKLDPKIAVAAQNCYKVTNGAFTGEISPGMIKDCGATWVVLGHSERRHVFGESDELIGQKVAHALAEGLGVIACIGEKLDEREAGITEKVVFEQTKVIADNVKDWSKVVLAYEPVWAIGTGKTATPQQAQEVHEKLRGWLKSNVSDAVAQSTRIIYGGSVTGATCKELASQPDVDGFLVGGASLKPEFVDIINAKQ

Compound | IC50 [4] | inhibition at 10 µM [4, 10] | inhibition at 10 µM [5] | % of Mortality LIT [2, 8] | acaricidal activity (in words) (R. microplus) | EC50 [3, 9] | inhibition at 100 µM [6] | also measured
Cc1ccc(/N=C/N(C)/C=N/c2ccc(C)cc2C)c(C)c1 [Amitraz, reference compound] | – | – | – | 100% | – | – | – | % of Mortality AIT [1]: 100%
COc1cc(/C=C/c2cc(/C=C/[c-]3cccc3)[nH]n2)ccc1O.[Fe+2].c1cc[cH-]c1 [Mar106, 2-Methoxy-4-((E)-2-(5-((E)-ferrocenylvinyl)-1H-pyrazol-3-yl)vinyl)phenol] | 25 ± 4 µM | – | – | – | did not show reproducible acaricidal activity | – | – | EC50 ([3]; cytotoxicity): > 25 µM; % Inhibition of Enzymatic Activity of RmTIM ([4]; at 100 µM (**), 1 h incubation): 69 ** %; % Inhibition of Enzymatic Activity of HsTIM at 10 µM ([5]; at 10 µM): 0%
O=C(/C=C/c1ccccn1)c1ccccc1O [compound 885] | – | – | – | 100 ± 9% | acaricidal potential against R. microplus similar to Amitraz | – | 91% | IC50 [6]: 17 ± 4 µM; IC50 ([3]; Mus musculus): > 50 µM; LC50 ([1]; adult females): 1000 µM; % of Mortality AIT [1]: 100 ± 9%; acaricidal activity on multiresistant strain (in words) [7]: had acaricidal activity
Cc1c(/C=C/C(=O)c2ccccc2O)no[n+]1[O-] [compound 1253] | – | – | – | 50 ± 8% | acaricidal potential | – | 95% | IC50 [6]: 12 ± 1 µM; IC50 ([3]; Mus musculus): > 50 µM
O=C(/C=C/c1ccsc1)/C=C/c1ccsc1 [compound 1387] | < 10 µM | 100% | 0% | – | did not show reproducible acaricidal activity | > 50 µM | – | –
Ivermectin [reference compound] | – | – | – | – | – | – | – | % of Mortality LIT ([2]; commercial ivermectin control at 0.082 mM): 100%

Continued, in another order:

IC50 [4] | inhibition at 10 µM [4, 10] | inhibition at 10 µM [5] | Compound | % of Mortality LIT [2, 8] | acaricidal activity (in words) (R. microplus) | EC50 [3, 9] | inhibition at 100 µM [6] | also measured
< 10 µM | 88% | 0% | O=C1/C(=C/c2ccccc2)CCC/C1=C\c1ccccc1 [compound 799] | – | did not show reproducible acaricidal activity | > 50 µM | – | –
< 10 µM | 95% | 0% | O=C1/C(=C2\Nc3ccccc3C2=O)Nc2ccccc21 [compound 879] | – | did not show reproducible acaricidal activity | > 50 µM | 9% | –
23 ± 2 µM | – | 0% | Clc1ccc(-c2csc(/N=C/C=C/c3ccco3)n2)cc1 [compound 910] | – | did not show reproducible acaricidal activity | > 50 µM | – | inhibition at 100 µM ([4]; at 100 µM (**), 1 h incubation, read-out: % Inhibition of Enzymatic Activity of RmTIM): 60%
< 10 µM | 82% | 0% | O=C(N/N=C/C=C/c1ccco1)c1ccccn1 [compound 1367] | – | did not show reproducible acaricidal activity | > 50 µM | – | –
